According to US20110262564A1, “Treatment of Cancer with Selenium Nanoparticles” (priority 2010, published 2011):

Columns and labels:
[1] = test system: androgen-independent DU145 cells; experiment: CCK-8 cell viability assay, DU145; format: cell-based, human
Procedure: (§1) To determine the cell viability effect of nano-Se in human prostate cancer cells, androgen-dependent LNCaP cells and androgen-independent DU145 cells were treated with 0, 1, 5, 10, 50 and 100 μM of Nano-Se particle suspensions for 24 and 48 hrs respectively.
(§2) LNCaP (Lot#1735217), and DU-145 (Lot#1145858) human prostate cancer cell lines were purchased from the American Type Culture Collection (ATCC, Manassas, Va., USA). Cells were maintained in 1640 culture medium (Invitrogen Life Technologies, USA) supplemented with 10% (v/v) fetal bovine serum and antibiotics.
(§3) For cell viability assay, cells were seeded into 96-well plates at a density of 1×10^4 cells/well, and 40-50% confluent cells were subsequently treated with nano-Se nanoparticles (1 to 100 μM) or distilled water for 24 or 48 hrs respectively. Treated cells were then collected and measured by Cell Counting Kit-8 (CCK-8) system (Dojindo Laboratory, Kumamoto, Japan). Briefly, CCK-8 solution (10 μl per 100 ul of medium in each well) was added, the plates were then incubated at 37° C. for 1 hour, and the absorbance of each well was read at 450 nm using a microplate reader. Values were shown as means±SE of quadruplicated determinations of a representative experiment (repeated three times). Differences between groups were analyzed using Student's test with significance assumed at p<0.05. All statistical analyses were performed using Origin75 software.
Cells were treated with 0-100 μM nano-Se nanoparticles or MSA for 24 and 48 hours. Cells were then collected and cell viabilities were assayed. The data shown are mean±standard of three samples for each treatment. Differences between groups were analyzed using Student's test with significance assumed at p<0.05.

[2] = test system: human lung carcinoma cell line A549 cells; experiment: Cell viability assay, A549; format: cell-based
Procedure: as §3
(§4) In reference to FIGS. 3A and 3B, 4A and 4B, 5A and 5B, 6A and 6B, the effects of nano-Se nanoparticles on cell viability are compared to that of MSA in androgen dependent prostate cancer line LNCaP cells, androgen independent prostate cancer line DU145 cells, human breast cancer cell line MCF-7 cells, human lung carcinoma cell line A549 cells.
(§5) Cells were treated with 0-100 μM nano-Se nanoparticles or MSA for 24 and 48 hours. […] Differences between groups were analyzed using Student's test with significance assumed at p<0.05.

[3] = test system: androgen-dependent LNCaP cells; experiment: CCK-8 cell viability assay, LNCaP; format: cell-based, human; settings: 0-100 μM, 24 and 48 hours
Procedure: as §1, §2
as §3, with “All statistical analyses were performed using Origin75 software.” left out

[4] = test system: human breast cancer cell line MCF-7 cells; experiment: Cell viability assay, MCF-7; format: cell-based
Procedure: as §3, §4, §5

androgen receptor [5] = biological target: T1, androgen receptor (Homo sapiens, UniProt P10275); experiment: pGL3-PSA-luc androgen receptor luciferase reporter assay in HEK293; format: cell-based; settings: PSA promoter construct, HEK293, 10 nM
T1 construct: the full length human wild type androgen receptor cDNA expression plasmid pAR0; expressed in transfected cells; host or cells: HEK293
T1 sequence (P10275 1-920): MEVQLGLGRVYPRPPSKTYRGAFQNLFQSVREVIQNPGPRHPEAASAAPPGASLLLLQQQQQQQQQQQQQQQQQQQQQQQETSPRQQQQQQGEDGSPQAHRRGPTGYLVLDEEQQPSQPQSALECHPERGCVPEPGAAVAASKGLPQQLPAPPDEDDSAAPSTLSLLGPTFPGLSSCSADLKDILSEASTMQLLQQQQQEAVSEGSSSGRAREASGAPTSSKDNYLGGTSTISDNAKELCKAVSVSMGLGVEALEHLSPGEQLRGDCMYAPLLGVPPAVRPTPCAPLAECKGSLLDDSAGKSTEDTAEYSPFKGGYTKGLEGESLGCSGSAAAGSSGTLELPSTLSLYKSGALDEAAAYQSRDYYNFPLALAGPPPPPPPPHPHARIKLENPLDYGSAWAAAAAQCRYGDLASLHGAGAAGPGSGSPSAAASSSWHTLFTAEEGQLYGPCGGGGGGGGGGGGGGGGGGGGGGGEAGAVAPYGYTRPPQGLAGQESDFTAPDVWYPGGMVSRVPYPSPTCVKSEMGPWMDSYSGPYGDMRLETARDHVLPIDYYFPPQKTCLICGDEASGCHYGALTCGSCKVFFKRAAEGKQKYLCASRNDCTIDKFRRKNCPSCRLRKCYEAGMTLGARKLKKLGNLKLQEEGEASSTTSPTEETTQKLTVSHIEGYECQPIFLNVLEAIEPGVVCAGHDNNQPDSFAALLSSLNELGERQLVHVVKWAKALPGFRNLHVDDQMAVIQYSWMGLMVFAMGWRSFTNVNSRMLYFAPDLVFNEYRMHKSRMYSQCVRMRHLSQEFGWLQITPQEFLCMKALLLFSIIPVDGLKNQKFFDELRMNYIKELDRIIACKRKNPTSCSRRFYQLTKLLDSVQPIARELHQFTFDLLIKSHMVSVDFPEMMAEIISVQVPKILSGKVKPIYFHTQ
Procedure: (§6) Both MMTV-luc and pGL3-PSA-luc plasmids contain Androgen Receptor binding site which recruits androgen receptor and its co-activator to recruit RNA Pol II to the promoter region.
(§7) Cells were then lysed and assayed for luciferase activity using Dual-Luciferase® Reporter Assay System (Promega, Madison, Wis., USA), the experiment was performed in triplicate and repeated at least four times.

androgen receptor [6] = biological target: T1, androgen receptor; experiment: MMTV-luc androgen receptor luciferase reporter assay in HEK293; format: cell-based; settings: MMTV promoter construct, HEK293, 10 nM
Procedure: as §6, §7

Row | SMILES | effect on cell viability ([1]; DU145, 0-100 μM, 24 and 48 hours, dose and time-dependent) | effect on cell viability, MSA versus nano-Se ([1]; DU145, 24 hour treatment, all measured concentrations) | effect on cell viability, nano-Se versus MSA ([1]; DU145, 48 hour treatment) | effect on cell viability ([2]; A549, 0-100 μM, 24 and 48 hours, dose and time-dependent) | potency in decreasing cell viability, MSA versus nano-Se ([2]; A549, 24 and 48 hours) | effect on cell viability [3] | effect on cell viability ([4]; MCF-7, 0-100 μM, 24 and 48 hours, dose and time-dependent) | potency in decreasing cell viability, MSA versus nano-Se ([4]; MCF-7, 24 and 48 hours) | androgen receptor dependent promoter activity (luciferase) (androgen receptor [5]) | androgen receptor dependent promoter activity (luciferase) (androgen receptor [6])
1 | C[Se](=O)O [MSA, Methylseleninic acid] | decreased cell viability | more significant | comparable | decreased cell viability | more potent in decreasing cell viability | decreased cell viability | decreased cell viability | more potent in decreasing cell viability |  | 
2 | C[C@]1(O)CC[C@H]2[C@@H]3CCC4=CC(=O)CCC4=C3C=C[C@@]21C [R1881] |  |  |  |  |  |  |  |  | induced androgen receptor dependent promoter activity | induced androgen receptor dependent promoter activity
